# Source: the RepoRT retention time repository
# Assay: Thermo Scientific Acclaim RSLC 120 C18, 100 × 2.1 mm, 2.2 µm, 30 °C, 0.2 to 0.48 mL/min, estimated dead time 1.1 min; A: 90% water + 10% methanol + 5 mM ammonium acetate; B: methanol + 5 mM ammonium acetate; gradient (min/%B) 0.1/1 3/39 14/99.9 16/99.9
# Conditions: stereoisomer not certain
row,Structure (SMILES),LC retention time
1,O=C(O)c1ccccc1S,5.44 min
2,CCC1(c2ccccc2)C(=O)NC(=O)NC1=O,6.1 min
3,CCCCCC(C)N (stereo unspecified),4.41 min
4,C=C(C)C1Cc2c(ccc3c2OC2COc4cc(OC)c(OC)cc4C2C3=O)O1 (stereo unspecified),10.4 min
5,O=c1[nH]cnc2[nH]ncc12,3.04 min
6,CC(C)CC(C)Nc1ccc(Nc2ccccc2)cc1 (stereo unspecified),11.8 min
7,CC1C=CC=CCCC=CC=CC=CC=CC(OC2OC(C)C(O)C(N)C2O)CC2OC(O)(CC(O)C(O)CCC(O)CC(O)CC(O)CC(=O)OC(C)C(C)C1O)CC(O)C2C(=O)O (stereo unspecified),11.8 min
8,CCCCC1C(=O)N(c2ccccc2)N(c2ccc(O)cc2)C1=O (stereo unspecified),7.73 min
9,CC12CCC3C(CCC4=CC(=O)CCC43C)C1CCC2=O (stereo unspecified),13.1 min
10,COC1CC(OC2C(C)OC(OC3C(C)=CCC4CC(CC5(C=CC(C)C(C(C)C)O5)O4)OC(=O)C4C=C(C)C(O)C5OCC(=CC=CC3C)C45O)CC2OC)OC(C)C1O (stereo unspecified),13.4 min
11,CC(Cc1ccc(O)cc1)NCC(O)c1cc(O)cc(O)c1 (stereo unspecified),4.33 min
12,CCC(=O)OC(OP(=O)(CCCCc1ccccc1)CC(=O)N1CC(C2CCCCC2)CC1C(=O)O)C(C)C (stereo unspecified),13.3 min
13,CC(C)(C)c1cc([N+](=O)[O-])cc([N+](=O)[O-])c1O,8.13 min
14,CC1(C)OCC2OC3(C(=O)O)OC(C)(C)OC3C2O1 (stereo unspecified),4.3 min
15,COc1ccc(C(O)(c2cncnc2)C2CC2)cc1 (stereo unspecified),7.12 min
16,CCCCCCCCCCCCOS(=O)(=O)c1ccccc1,14.2 min
17,CCCCN1CCCCC1C(=O)Nc1c(C)cccc1C (stereo unspecified),10.7 min
18,COP(=S)(OC)Oc1ccc(S(N)(=O)=O)cc1,6.16 min
19,COC(=O)Nc1nc2ccccc2[nH]1,5.8 min
20,CCc1ccc(CCOc2ccc(CC3SC(=O)NC3=O)cc2)nc1 (stereo unspecified),10.6 min
21,CC1=CC(=O)NS(=O)(=O)O1,2.34 min
22,CC12C=CC(=O)C=C1CCC1C2C(O)CC2(C)C1CCC2(O)C(=O)CO (stereo unspecified),8.92 min
23,CCNc1nc(NC(C)C)[nH]c(=O)n1,6 min
24,Nc1ncn[nH]1,1.67 min

row,Structure (SMILES),LC retention time
1,CC1CC2(C)C(CCC3C4CCC(O)C4(C)CCC32)CC1=O (stereo unspecified),14.4 min
2,CC(Cn1cnc2c(N)ncnc21)OCP(=O)(O)O (stereo unspecified),3.18 min
3,O=C(O)c1cc(-c2ccccc2)nc2ccccc12,5.89 min
4,CCOc1cc(CC(=O)NC(CC(C)C)c2ccccc2N2CCCCC2)ccc1C(=O)O (stereo unspecified),12.8 min
5,CNC(=C[N+](=O)[O-])NCCS(=O)Cc1ccc(CN(C)C)o1 (stereo unspecified),3.93 min
6,O=c1nccc[nH]1,5.01 min
7,O=C(O)c1cccc(Oc2ccccc2)c1,7.77 min
8,Cc1cccc(Nc2ccccc2C(=O)O)c1C,9.29 min
9,CC12C=CC(=O)C=C1CCC1C2C(=O)CC2(C)C1CCC2(O)C(=O)CO (stereo unspecified),8.31 min
10,C=CCC1(C(C)C#CCC)C(=O)NC(=O)N(C)C1=O (stereo unspecified),9.02 min
11,CC(C)c1nc(CN(C)C(=O)NC(C(=O)NC(Cc2ccccc2)CC(O)C(Cc2ccccc2)NC(=O)OCc2cncs2)C(C)C)cs1 (stereo unspecified),12.5 min
12,CCNP(=S)(OC)OC(C)=CC(=O)OC(C)C (stereo unspecified),9.75 min
13,CCOC(=O)C1=CC(OC(CC)CC)C(NC(C)=O)C(N)C1 (stereo unspecified),8.79 min
14,CC1CC(C)C(=O)C(C(O)CC2CC(=O)NC(=O)C2)C1 (stereo unspecified),6.32 min
15,CCCCOc1ccc(CC(=O)NO)cc1,9.24 min
16,COP(=O)(NC(C)=O)SC (stereo unspecified),3.09 min
17,CC1(C)CC1C(=O)NC(=CCCCCSCC(N)C(=O)O)C(=O)O (stereo unspecified),4.91 min
18,CC(C)N1C(=O)c2ccccc2NS1(=O)=O,4.49 min
19,CC(=O)Nc1nnc(S(N)(=O)=O)s1,3.24 min
20,Cc1nnc(-c2ccccc2)c(=O)n1N,5.22 min
21,Cc1cccc(Nc2ccncc2S(=O)(=O)NC(=O)NC(C)C)c1,8.29 min
22,COC(=O)C(C)=COP(=S)(OC)OC,5.12 min
23,CC1(c2ccc(Oc3ccccc3)cc2)OC(=O)N(Nc2ccccc2)C1=O (stereo unspecified),11 min
24,CC(=O)Nc1cc(S(=O)(=O)O)cc2cc(S(=O)(=O)O)c(N=Nc3ccccc3)c(O)c12,4.56 min

# Other lines, results leading:
row,LC retention time,Structure (SMILES)
1,8.39 min,COc1ccc(Oc2ccc(NC(=O)N(C)C)cc2)cc1
2,1.52 min,CCOS(=O)(=O)O
3,4.12 min,O=S(=O)(O)NC1CCCCC1
4,3.58 min,O=C(O)c1ccccc1O
5,10.1 min,CCCCC1=NC2(CCCC2)C(=O)N1Cc1ccc(-c2ccccc2-c2nn[nH]n2)cc1
6,4.67 min,CNC(=C[N+](=O)[O-])NCCSCc1ccc(CN(C)C)o1
7,7.49 min,Cc1cccc(C)c1NC(=O)C1CCCCN1C (stereo unspecified)
8,12.2 min,COc1ccc(C(=O)c2ccccc2O)cc1
9,3.16 min,CC(C)C(NC(=O)C(CC(=O)O)NC(=O)C(CCCCN)NC(=O)C(N)CCCN=C(N)N)C(=O)NC(Cc1ccc(O)cc1)C(=O)O (stereo unspecified)
10,3.09 min,O=C1NS(=O)(=O)c2ccccc21
11,4.08 min,CC(C)C(N)C(=O)OCC(CO)OCn1cnc2c(=O)[nH]c(N)nc21 (stereo unspecified)
12,8.02 min,CCc1cccc(CC)c1N(COC)C(=O)CS(=O)(=O)O
13,3.69 min,On1nnc2ccccc21
14,4.46 min,CC1(C)SC2C(NC(=O)C(N)c3ccccc3)C(=O)N2C1C(=O)O (stereo unspecified)
15,7.69 min,CCc1cccc(CC)c1N(COC)C(=O)C(=O)O
16,5.11 min,Nc1nc2ccccc2[nH]1
17,2.04 min,Nc1ccc(O)c(C(=O)O)c1
18,12.4 min,COC(=O)NC(C(=O)NC(Cc1ccccc1)C(O)CN(Cc1ccc(-c2ccccn2)cc1)NC(=O)C(NC(=O)OC)C(C)(C)C)C(C)(C)C (stereo unspecified)
19,2.88 min,COc1cc(S(=O)(=O)O)c(C)cc1N=Nc1c(O)ccc2cc(S(=O)(=O)O)ccc12
20,11.2 min,CC(C(=O)O)c1ccc(C2CCCCC2)c2ccccc12 (stereo unspecified)
21,8.24 min,CS(=O)(=O)Nc1ccc([N+](=O)[O-])cc1Oc1ccccc1
22,7.46 min,CCCCC1C(=O)N(c2ccccc2)N(c2ccccc2)C1=O
23,10.2 min,COC(=O)C(Cc1ccccc1)NC(=O)C(CC(=O)O)NCCC(C)(C)C (stereo unspecified)
